{
  "source": "patent US4848349A",
  "about": "“Substance and method for measuring hepatic blood flow” (priority 1987, dated 1989)",
  "assay_type_in_all_cases": "in vivo",
  "key": {"[1]": {"assay": "Liver blood flow measurement by plasma elimination of injected FITC-GC", "settings": "9 kg dog", "protocol": "The use of FITC bile acid for measuring liver blood flow has been tested in a dog. The following experimental protocol was followed.\n15 μmoles of FITC-labelled glycocholic bile acid (FITC-GC) in 2 ml normal saline were injected into a 9 kg dog. Serial blood samples were taken into heparinized containers at 2, 4, 6, 8, and 10 minutes following the initial injection. The samples were then centrifuged for 5 minutes and the plasma collected. The concentration of FITC-GC in each plasma sample was measured with a PERKIN-ELMERS* spectrophlourimeter, using a previously determined calibration curve for FITC-GC solutions in plasma.\nTherefore plasma clearance was calculated as [formula] M-amount of material injected and k=const. (k=1 for 100% extraction, 0.9 for 90% extraction), thus [formula] where [formula] is the slope of the line for concentration vs. time plot on a semi-log paper, and Co is the initial concentration (log Co is determined as an intercept of the plot with the concentration axis). For the purpose of calculating plasma clearance, k was assumed to equal 0.9.\nLiver blood flow was then calculated from the plasma clearance value using the previously determined blood hematocrit (Htc) value as follows: [formula]"}, "[2]": {"system": "rats", "assay": "Effects on bile flow, sinusoidal blood flow, blood pressure and heart rate (rats)", "settings": "compared with equimolar amounts of sodium glycocholate"}, "[3]": {"system": "hamsters", "assay": "Effects on bile flow, sinusoidal blood flow, blood pressure and heart rate (hamsters)", "settings": "compared with equimolar amounts of sodium glycocholate"}, "[4]": {"assay": "Biliary excretion after intraduodenal injection (enterohepatic circulation)", "protocol": "In another group of experiments, FITC-GC was injected intraduodenally and bile samples collected for a period of two hours. More than 90% of the injected conjugate was excreted in the bile. […] It is these characteristics of fluoresceintly labelled bile acids which make them valuable as diagnostic agents and research tools."}},
  "data": [
    {"smiles": "C[C@H](CCC(=O)NCC(=O)O)[C@H]1CC[C@H]2[C@@H]3[C@H](O)C[C@@H]4C[C@H](OC(=S)Nc5ccc6c(c5)C5(OC6=O)c6ccc(O)cc6Oc6cc(O)ccc65)CC[C@]4(C)[C@H]3C[C@H](O)[C@]12C", "note": "[FITC-GC, fluorescein isothiocyanate-sodium glycocholate]", "values": [
      {"measurement": "liver blood flow", "setting": "[1]; 15 μmoles FITC-GC injected in 2 ml normal saline, samples at 2-10 minutes, k assumed 0.9, corrected for hematocrit", "value": 194, "unit": "mL/min"},
      {"measurement": "concentration values in plasma serial samples (decline)", "setting": "[1]; 15 μmoles injected, 2, 4, 6, 8 and 10 minutes", "value": "monoexponential decline"},
      {"measurement": "effect on bile flow", "setting": "[2]", "value": "the same effects"},
      {"measurement": "effect on blood pressure", "setting": "[2]", "value": "the same effects"},
      {"measurement": "effect on heart rate", "setting": "[2]", "value": "the same effects"},
      {"measurement": "effect on sinusoidal blood flow", "setting": "[2]", "value": "the same effects"},
      {"measurement": "effect on bile flow", "setting": "[3]", "value": "the same effects"},
      {"measurement": "effect on blood pressure", "setting": "[3]", "value": "the same effects"},
      {"measurement": "effect on heart rate", "setting": "[3]", "value": "the same effects"},
      {"measurement": "effect on sinusoidal blood flow", "setting": "[3]", "value": "the same effects"},
      {"measurement": "dose excreted at 2 h", "setting": "[4]; injected intraduodenally, bile collected for two hours, read-out: injected conjugate excreted in the bile", "value": "> 90", "unit": "%"},
      {"measurement": "enterohepatic circulation", "setting": "[4]; intraduodenal injection and reinjection of bile", "value": "undergoes an enterohepatic circulation"},
      {"measurement": "elimination of the injected conjugate via bile after reinjection of collected bile", "setting": "[4]; reinjection into the duodenum of the bile collected", "value": "almost complete elimination"}
    ]}
  ]
}
